Assay results: PubChem BioAssay AID330 (DTP/NCI, 2004)
Several values for one entry are separate records, joined by “and”; a condition that tells them apart may be missing. Equal entries are not always repeated. Toxic doses and inconclusive results are not listed. The calls were made as follows: active = survival T/C of 150% or more; inactive = T/C below 125% in these data. Numbered stars: 1 amine (or outer) side, 2 acyl side, 3 side chain; on linkers, the order of the positions; unused ones are H or OH. Bridge positions count the residues as written; N and C are the ends. Square brackets hold non-standard residues; d marks the D form. Peptide text beside a SMILES is read from it. * marks the point of attachment. X2 = CC(C)C(C)C(C(=O)[*:2])N(C)[*:1]; Picolinoyl(3-OH) = O=C(c1ncccc1O)*; NMePhg = CN[CH](C(=O)O)c1ccccc1; Hyp = O=C(O)[CH]1C[CH](O)CN1; Sar = CNCC(=O)O

System: P388 leukemia ip, CD2F1 mice, survival T/C
Experiment: NCI In Vivo Anticancer Drug Screen. Data for tumor model P388 Leukemia (intraperitoneal) in CD2F1 (CDF1) mice
Conditions: endpoint: median survival time, higher = longer survival
In short: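 Mice carrying the transplanted tumor received test compound or vehicle. Survival was recorded in each group, and the value is the treated-group measurement divided by that of the vehicle-treated control group.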

[1] = dose: 50.0 mg/kg/injection, schedule: Q01DX009 (ip), vehicle: saline with Tween-80
[2] = dose: 100.0 mg/kg/injection, schedule: Q01DX009 (ip), vehicle: saline with Tween-80
[3] = dose: 200.0 mg/kg/injection, schedule: Q01DX009 (ip), vehicle: saline with Tween-80
[4] = dose: 50.0 mg/kg/injection, schedule: Q01DX005 (ip), vehicle: saline with Tween-80
[5] = dose: 100.0 mg/kg/injection, schedule: Q01DX005 (ip), vehicle: saline with Tween-80
[6] = dose: 50.0 mg/kg/injection, schedule: Q01DX009 (ip), vehicle: Klucel (hydroxypropylcellulose) (HPC)
[7] = dose: 100.0 mg/kg/injection, schedule: Q01DX009 (ip), vehicle: Klucel (hydroxypropylcellulose) (HPC)
[8] = dose: 200.0 mg/kg/injection, schedule: Q01DX009 (ip), vehicle: Klucel (hydroxypropylcellulose) (HPC)
[9] = dose: 50.0 mg/kg/injection, schedule: Q01DX005 (ip), vehicle: Klucel (hydroxypropylcellulose) (HPC)
[10] = dose: 100.0 mg/kg/injection, schedule: Q01DX005 (ip), vehicle: Klucel (hydroxypropylcellulose) (HPC)
[11] = dose: 200.0 mg/kg/injection, schedule: Q01DX005 (ip), vehicle: Klucel (hydroxypropylcellulose) (HPC)
[12] = dose: 50.0 mg/kg/injection, schedule: Q01DX005 (ip), vehicle: saline

Measured: T/C

CN=C(NC)c1ccc(NC(=O)Nc2ccc(C)c(NC(=O)Nc3ccc(C(=NC)NC)cc3)c2)cc1
inactive: dose: 1.56 mg/kg/injection, schedule: Q01DX005 (ip), vehicle: saline 96 % of control | dose: 3.12 mg/kg/injection, schedule: Q01DX005 (ip), vehicle: saline 99 % of control | dose: 6.25 mg/kg/injection, schedule: Q01DX005 (ip), vehicle: saline 96 % of control | dose: 6.25 mg/kg/injection, schedule: Q01DX005 (ip), vehicle: suspension in saline 103 % of control

N#CC1(C#N)C(C#N)(C#N)C12CCCCCC2
inactive: dose: 12.5 mg/kg/injection, schedule: Q04DX003 (ip), vehicle: Klucel (hydroxypropylcellulose) (HPC) 106 % of control | dose: 25.0 mg/kg/injection, schedule: Q04DX003 (ip), vehicle: Klucel (hydroxypropylcellulose) (HPC) 112 % of control | dose: 50.0 mg/kg/injection, schedule: Q04DX003 (ip), vehicle: Klucel (hydroxypropylcellulose) (HPC) 95 % of control

Nc1ncnc(N)c1NC(=O)c1ccccc1
inactive: dose: 60.0 mg/kg/injection, schedule: Q01DX005 (ip), vehicle: suspension in saline 98 % of control | dose: 120.0 mg/kg/injection, schedule: Q01DX005 (ip), vehicle: suspension in saline 106 % of control

CS(=O)(=O)[O][Sn]([CH3])([CH3])[O]S(C)(=O)=O
inactive: dose: 6.25 mg/kg/injection, schedule: Q04DX003 (ip), vehicle: saline 104 % of control | dose: 12.5 mg/kg/injection, schedule: Q04DX003 (ip), vehicle: saline 109 % of control | dose: 25.0 mg/kg/injection, schedule: Q04DX003 (ip), vehicle: saline 110 % of control

NC(=O)C(Cl)Cl
inactive: dose: 100.0 mg/kg/injection, schedule: Q04DX002 (ip), vehicle: saline 108 % of control | dose: 200.0 mg/kg/injection, schedule: Q04DX002 (ip), vehicle: saline 100 % of control | dose: 400.0 mg/kg/injection, schedule: Q04DX002 (ip), vehicle: saline 100 % of control

O=C(Nc1cc(C(F)(F)F)ccc1Cl)n1nc(Cl)c2ccc([N+](=O)[O-])cc21
inactive: [1] 102 % of control | [2] 104 % of control | [3] 95 % of control

COc1cc(O)c(/C=N/NC(=S)NC23CC4CC(CC(C4)C2)C3)c(OC)c1
inactive: dose: 7.5 mg/kg/injection, schedule: Q01DX005 (ip), vehicle: saline with Tween-80 105 % of control | dose: 15.0 mg/kg/injection, schedule: Q01DX005 (ip), vehicle: saline with Tween-80 101 % of control and 103 % of control | dose: 60.0 mg/kg/injection, schedule: Q01DX005 (ip), vehicle: saline with Tween-80 93 % of control

O=C(NC(=O)c1c(F)cccc1F)Nc1ccc(C(O)(C(F)(F)F)C(F)(F)F)cc1
inactive: [4] 102 % of control | [5] 100 % of control | dose: 200.0 mg/kg/injection, schedule: Q01DX005 (ip), vehicle: saline with Tween-80 109 % of control

O=S(=O)(O)c1ccc2c(c1)C1C(C3C2C2(Cl)C(Cl)=C(Cl)C3(Cl)C2(Cl)Cl)C2(Cl)C(Cl)=C(Cl)C1(Cl)C2(Cl)Cl (configuration not stated)
inactive: dose: 50.0 mg/kg/injection, schedule: Q01DX009 (ip), vehicle: saline 108 % of control | dose: 100.0 mg/kg/injection, schedule: Q01DX009 (ip), vehicle: saline 108 % of control | dose: 200.0 mg/kg/injection, schedule: Q01DX009 (ip), vehicle: saline 114 % of control

N#CN=CN1CCN(c2ccccc2)CC1
inactive: [1] 100 % of control | [2] 97 % of control | [3] 99 % of control

COc1cc(/C=N/NC(N)=O)cc(OC)c1O
inactive: [6] 105 % of control | [7] 99 % of control | [8] 98 % of control

CCN(CC)CC(=O)c1ccc(O)c(O)c1
inactive: [1] 91 % of control | [2] 98 % of control and 106 % of control | [3] 112 % of control and 123 % of control | dose: 400.0 mg/kg/injection, schedule: Q01DX009 (ip), vehicle: saline with Tween-80 116 % of control and 117 % of control

CCC(CO)[N-]CC[N-]C(CC)CO.CCC(CO)[N-]CC[N-]C(CC)CO.O.O.[Pd+2].[Pd+2] (configuration not stated)
inactive: [9] 91 % of control | [10] 97 % of control | [11] 98 % of control

NC(N)=N/N=C1/c2ccccc2/C(=N/N=C(N)N)C1[N+](=O)[O-]
inactive: dose: 25.0 mg/kg/injection, schedule: Q01DX001 (ip), vehicle: Klucel (hydroxypropylcellulose) (HPC) 112 % of control | dose: 50.0 mg/kg/injection, schedule: Q01DX001 (ip), vehicle: Klucel (hydroxypropylcellulose) (HPC) 114 % of control | dose: 100.0 mg/kg/injection, schedule: Q01DX001 (ip), vehicle: Klucel (hydroxypropylcellulose) (HPC) 114 % of control | dose: 200.0 mg/kg/injection, schedule: Q01DX001 (ip), vehicle: Klucel (hydroxypropylcellulose) (HPC) 113 % of control | dose: 400.0 mg/kg/injection, schedule: Q01DX001 (ip), vehicle: Klucel (hydroxypropylcellulose) (HPC) 111 % of control

CC(C)CC1NC(=O)C(NC(=O)c2ncccc2O)C(C)OC(=O)C(c2ccccc2)N(C)C(=O)C(C)NC(=O)C(C(C)C(C)C)N(C)C(=O)CN(C)C(=O)C2CC(O)CN2C1=O (configuration not stated) ({Picolinoyl(3-OH)}-TL[Hyp][Sar][X2]A[NMePhg]; ester 1-C; configuration not given here)
inactive: dose: 12.5 mg/kg/injection, schedule: Q01DX009 (ip), vehicle: Klucel (hydroxypropylcellulose) (HPC) 95 % of control | dose: 25.0 mg/kg/injection, schedule: Q01DX009 (ip), vehicle: Klucel (hydroxypropylcellulose) (HPC) 94 % of control | [6] 93 % of control | [7] 95 % of control and 97 % of control | [8] 98 % of control and 119 % of control

Clc1ccc(SSc2ccc(Cl)cc2)cc1
inactive: dose: 12.5 mg/kg/injection, schedule: Q01DX009 (ip), vehicle: gum acacia 106 % of control | dose: 25.0 mg/kg/injection, schedule: Q01DX009 (ip), vehicle: gum acacia 106 % of control | dose: 50.0 mg/kg/injection, schedule: Q01DX009 (ip), vehicle: gum acacia 114 % of control

O=C1CCOc2cccc(c2)OCCC(=O)OCCCOC(=O)CCOc2cccc(c2)OCCC(=O)OCCCO1
inactive: dose: 12.5 mg/kg/injection, schedule: Q01DX005 (ip), vehicle: saline 103 % of control | dose: 25.0 mg/kg/injection, schedule: Q01DX005 (ip), vehicle: saline 107 % of control | [9] 96 % of control | [12] 98 % of control

N#Cc1c(C(F)(F)F)cc(-c2cccs2)nc1SC(C(=O)Nc1c(F)cccc1F)c1ccccc1 (configuration not stated)
inactive: [9] 94 % of control | [10] 94 % of control | [11] 94 % of control

CCC1(CC)C(=O)NC(=O)NC1(OC)OC
inactive: [12] 98 % of control | dose: 100.0 mg/kg/injection, schedule: Q01DX005 (ip), vehicle: saline 106 % of control | dose: 200.0 mg/kg/injection, schedule: Q01DX005 (ip), vehicle: saline 100 % of control

C[n+]1c(/C=N/NC(N)=S)ccc2ccccc21
inactive: [2] 118 % of control

COC(=O)/C(=C1/OC(=O)C(c2ccc(Cl)cc2)=C1O)c1ccc(OC)cc1
inactive: [9] 102 % of control | [10] 94 % of control

CCCS/C(N)=N/N=C/c1ccc([N+](=O)[O-])o1
inactive: dose: 6.25 mg/kg/injection, schedule: Q01DX009 (ip), vehicle: suspension in saline 102 % of control | dose: 12.5 mg/kg/injection, schedule: Q01DX009 (ip), vehicle: suspension in saline 92 % of control | dose: 25.0 mg/kg/injection, schedule: Q01DX009 (ip), vehicle: suspension in saline 91 % of control | dose: 50.0 mg/kg/injection, schedule: Q01DX009 (ip), vehicle: suspension in saline 109 % of control

CCCC(CC)(C(=O)Nc1ccc2nc(C)cc(N)c2c1)C(=O)Nc1ccc2nc(C)cc(N)c2c1
inactive: [4] 91 % of control | [5] 93 % of control
